Here are results for 2 compounds from patent US12480089B2, “Antiviral treatment comprising Blis containing probiotic products” (BLIS TECHNOLOGIES LIMITED, priority 2020, dated 2025).

What all share (format): cell-based
The subject of test [1] is SARS-CoV-2, USA-WA1/2020 strain.
The subject of the next test is Influenza A virus H3N2. Briefly: Neutral red CPE assay, Influenza A in MDCK cells. The conditions noted are these: strain samples: resuspension medium DMEM, time to produce antiviral activity 6. The procedure: The antiviral activity of S. salivarius sample preparations were evaluated against severe acute respiratory syndrome coronavirus 2 (SARS-CoV-2) and Influenza A virus H3N2 in neutral red (NR) assays to evaluate inhibition of viral-induced cytopathic effect (CPE).
Neutral red assay: Samples were received frozen on dry ice and stored at −20° C. upon arrival. All 10 samples were serially diluted in test medium using 4 1:2 dilutions so that the starting (high) test concentration was 50% sample. Each dilution was added to 5 wells of a 96-well plate with 80-90% confluent Vero 76 (SARS-CoV-2) or MDCK (Influenza) cells.
Three wells of each dilution were infected with virus, and two wells remained uninfected as toxicity controls. On each plate, six untreated wells were infected as virus controls, and six untreated wells were left uninfected to use as cell controls.
Viruses were diluted to a specific 50% cell culture infectious dose (CCID50) per mL to achieve the lowest possible multiplicity of infection (MOI) that would yield >80% cytopathic effect (CPE) within 3-5 days. […]
Supernatant dye was removed, wells rinsed with PBS, and the incorporated dye was extracted in 50:50 Sorensen citrate buffer/ethanol for >30 minutes and the optical density was read on a spectrophotometer at 540 nm. […]

For another test, the system named is RSV (A2 strain). The conditions noted are these: MA-104, DMEM, max CPE day 6.
In test [2] the test system is influenza B (Brisbane/60/2008 strain). Put plainly: Neutral red CPE assay, influenza B in MDCK cells. The conditions noted are these: DMEM + trypsin + EDTA, max CPE day 3. The procedure: K12 and M18 were tested for in vitro antiviral activity against RSV (A2 strain) and influenza B (Brisbane/60/2008 strain).
Samples were serially diluted using four 2-fold dilutions in media so that the starting (high) test concentration was 50%. Media for MDCK cells included DMEM+10 U/ml trypsin+1 ug/mL EDTA. Each dilution was added to 5 wells of a 96-well plate with 80-100% confluent cells. Three wells of each dilution were infected with virus, and two wells remained uninfected as toxicity controls. Six wells were infected and untreated as virus controls, and six wells were uninfected and untreated as cell controls. A positive control compound, ribavirin, was tested in parallel. Plates were incubated at 37±2° C., 5% CO2.
Once untreated virus control wells reached maximum CPE on the day indicated in the table below, plates were stained with neutral red dye for approximately 2 hours (±15 minutes). Supernatant dye was removed and wells rinsed with PBS, and the incorporated dye was extracted in 50:50 Sorensen citrate buffer/ethanol for >30 minutes and the optical density was read on a spectrophotometer at 540 nm.
The selective index (SI) is the CC50 divided by EC50.

With `CCO` [Ethanol], in test [1] (30-minute contact at room temperature, 90% preparation and 10% virus solution, virus control 4.2), the “Round 1 virus titer” value was determined as 1.1 log 10 CCID50 per 0.1 mL. Also, the “Round 2 Virus titer” value in test [1] (30-minute contact at room temperature, 90% preparation and 10% virus stock, virus control 4.0) was less than 0.67 log 10 CCID50 per 0.1 mL. For the same compound, in test [1] (Round 2, compared to virus control), the “Log Reduction value” is 3.33.
As to `NC(=O)c1ncn([C@@H]2O[C@H](CO)[C@@H](O)[C@H]2O)n1` [Ribavirin, ribavirin], the “SI Index” value is recorded as greater than 590 in the test on Influenza A virus H3N2, 14 in the test with RSV (A2 strain) and greater than 320 in test [2].
